Assay [1] relates to MAC formation in normal human serum. The assay can be described thus: Human serum MAC formation assay (zymosan-coated plates, 50% normal human serum). To be noted: 50% normal human serum with EGTA, 37° C. 30 minutes. The method, then:
MAC deposition assay using normal human serum was applied to evaluate compound potency under physiologically relevant conditions. Black Maxisorp plates (Thermo Fisher, 437111) were coated with preactivated zymosan (Complement Technology, B400) at 0.5 mg/mL in carbonate buffer (pH 9.5, Sigma, C3041) at room temperature overnight. Compounds were serial diluted 3-fold in 100% DMSO for a 10-point dose-response curve. Normal human serum (Complement Technology, NHS) was diluted to 50% (v/v) with the gelatin buffer (4.2 mM HEPES pH 7.4, 0.15 mM CaCl2, 141 mM NaCl, 4.5 mM MgCl2, 0.1% gelatin) containing 20 mM EGTA or 20 mM EDTA. In conical bottom 96-well plates, 1 μL compound and 99 μL of serum-EGTA were mixed. Serum-EDTA was used as baseline control. The serum-compound mixture was incubated at room temperature for 15 minutes before being transferred to the washed zymosan plate for complement activation at 37° C. for 30 minutes. The reaction was terminated by decanting the reaction mixture and adding blocking buffer (Thermo Fisher, 37539) for 20 minutes. MAC formation on the ELISA plate was detected using 0.2 μg/mL mouse anti-human C9 neoepitope monoclonal antibody (Thermo Fisher, MA5-33373) diluted in phosphate-buffered saline with 0.05% Tween-20 (PBST). A goat anti-mouse IgG-HRP antibody (Thermo Fisher, A16072) was used at 1:2000 in PBST as secondary antibody. After washing, the reaction was developed using QuantaBlu (Thermo Fisher, 15169) for 20 minutes at room temperature. The plates were read at 325 nm excitation and 420 nm emission wavelengths. Percent inhibition values were generated using the baseline (EDTA-serum) and the maximum control (EGTA-serum). An IC50 for each compound was calculated using 4-parameter logistic regression.

The target of another assay is human C3bBb (Homo sapiens (Human), UniProt P00751). In words: Human C3bBb enzyme assay (C3a generation from C3, ELISA). It counts as biochemical. As to conditions: for pIC50: read-out: Human C3b:Bb IC50 Avg. As to the method: Compounds disclosed herein were evaluated for their potency to inhibit human C3bBb in a biochemical assay. To generate active C3bBb complex in vitro, purified human C3b (Complement Technology, A114), CFB (Complement Technology, A135) and CFD (Complement Technology, A136) were mixed in a 1:1:1 ratio to a final concentration of 1 μM each in the C3bBb assay buffer (PBS pH 7.4, 100 μM NiCl2, 0.05% (w/v) CHAPS). The reaction mix was incubated at room temperature for 30 minutes on a rotating platform. […] On the day of the enzyme assay, a reaction mixture containing 3 nM C3bBb complex and 1 μM purified human C3 (Complement Technology, A113) was prepared in the C3bBb assay buffer. Compounds were serial diluted 3-fold in 100% DMSO for a 10-point dose-response curve. A 0.5 μL aliquot of diluted compound solution was transferred to a conical bottom 96-well plate, before 49.5 μL of the reaction mix was added to each well to initiate the reaction. The plate was incubated for 1 hour at room temperature. […] The generation of C3a from C3 by the C3bBb complex was measured using the MicroVue C3a Plus EIA ELISA kit (Quidel, A031). The concentration of C3a from each well was calculated using a standard curve. Percent inhibition values were generated using the baseline (C3 only) and the maximum control (DMSO instead of compound), and IC50 of each compound was calculated using 4-parameter logistic regression.
Chain of human C3bBb (P00751 260-764): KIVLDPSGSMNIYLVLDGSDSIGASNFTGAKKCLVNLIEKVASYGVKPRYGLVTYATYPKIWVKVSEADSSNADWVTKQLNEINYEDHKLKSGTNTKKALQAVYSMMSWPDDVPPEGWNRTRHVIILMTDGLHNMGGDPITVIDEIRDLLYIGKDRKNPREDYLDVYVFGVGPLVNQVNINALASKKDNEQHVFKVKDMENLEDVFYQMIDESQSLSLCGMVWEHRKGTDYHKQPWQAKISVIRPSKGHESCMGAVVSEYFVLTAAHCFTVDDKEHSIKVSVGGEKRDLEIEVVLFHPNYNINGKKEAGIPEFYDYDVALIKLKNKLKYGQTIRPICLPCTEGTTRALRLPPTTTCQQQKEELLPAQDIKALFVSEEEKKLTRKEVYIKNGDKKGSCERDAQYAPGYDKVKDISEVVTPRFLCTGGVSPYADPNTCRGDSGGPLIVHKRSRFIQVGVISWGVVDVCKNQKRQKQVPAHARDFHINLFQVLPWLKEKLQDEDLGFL
Chain of human C3bBb (P01024 23-667 partner): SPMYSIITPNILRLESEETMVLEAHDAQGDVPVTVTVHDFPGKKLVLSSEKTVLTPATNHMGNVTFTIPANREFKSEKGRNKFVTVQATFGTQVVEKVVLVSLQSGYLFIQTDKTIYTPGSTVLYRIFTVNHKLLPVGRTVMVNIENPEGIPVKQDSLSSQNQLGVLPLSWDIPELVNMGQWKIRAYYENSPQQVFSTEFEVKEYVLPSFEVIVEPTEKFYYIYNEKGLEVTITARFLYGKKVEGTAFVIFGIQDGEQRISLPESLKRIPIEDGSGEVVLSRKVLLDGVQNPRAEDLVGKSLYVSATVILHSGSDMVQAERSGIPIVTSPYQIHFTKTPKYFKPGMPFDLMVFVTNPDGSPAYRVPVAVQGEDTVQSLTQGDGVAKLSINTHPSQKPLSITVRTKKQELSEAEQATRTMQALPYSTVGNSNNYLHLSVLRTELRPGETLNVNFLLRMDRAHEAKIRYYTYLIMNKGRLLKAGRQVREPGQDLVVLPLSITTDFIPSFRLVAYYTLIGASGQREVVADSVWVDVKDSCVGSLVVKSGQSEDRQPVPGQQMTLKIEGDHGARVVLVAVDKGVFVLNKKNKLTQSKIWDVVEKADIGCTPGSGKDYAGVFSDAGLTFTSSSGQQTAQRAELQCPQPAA
Chain of human C3bBb (P01024 749-1663 partner): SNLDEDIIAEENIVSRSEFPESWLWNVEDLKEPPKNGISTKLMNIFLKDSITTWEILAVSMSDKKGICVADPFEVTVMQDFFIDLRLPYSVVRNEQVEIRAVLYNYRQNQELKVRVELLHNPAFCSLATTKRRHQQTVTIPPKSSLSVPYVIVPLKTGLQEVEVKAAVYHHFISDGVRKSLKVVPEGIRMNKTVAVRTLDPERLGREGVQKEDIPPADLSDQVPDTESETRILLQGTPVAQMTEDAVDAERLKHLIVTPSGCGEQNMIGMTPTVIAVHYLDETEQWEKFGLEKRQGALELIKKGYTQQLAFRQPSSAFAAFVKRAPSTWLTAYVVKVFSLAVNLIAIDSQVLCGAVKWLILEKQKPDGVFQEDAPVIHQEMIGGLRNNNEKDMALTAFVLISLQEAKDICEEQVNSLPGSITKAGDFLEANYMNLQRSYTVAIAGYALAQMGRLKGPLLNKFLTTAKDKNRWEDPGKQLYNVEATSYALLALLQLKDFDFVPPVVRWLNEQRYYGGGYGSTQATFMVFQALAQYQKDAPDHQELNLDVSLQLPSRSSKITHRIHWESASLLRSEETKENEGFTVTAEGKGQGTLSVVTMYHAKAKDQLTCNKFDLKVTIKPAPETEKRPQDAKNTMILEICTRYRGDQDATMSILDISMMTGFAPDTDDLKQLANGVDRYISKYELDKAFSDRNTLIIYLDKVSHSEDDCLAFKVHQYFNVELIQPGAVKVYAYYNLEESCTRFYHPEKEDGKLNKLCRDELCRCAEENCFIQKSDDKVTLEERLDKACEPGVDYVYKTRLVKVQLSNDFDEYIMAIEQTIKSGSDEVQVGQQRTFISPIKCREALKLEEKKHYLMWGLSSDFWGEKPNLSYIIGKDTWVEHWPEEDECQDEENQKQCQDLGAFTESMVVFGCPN
(In general: In an ELISA, binding on a coated surface is turned into a signal by an enzyme label.)

[2] abbreviates: starred values: assay conducted with 1 nM C3b:Bb enzyme.
The mark [3] stands for this setting: 3 nM C3bBb complex, 1 μM human C3, 1 hour room temperature.

pIC50: −log10 of the molar value. Read-outs that look alike come from different tables or passages of the source.

For the compound `COc1cc(C)c2[nH]cc(Cl)c2c1CN1CC[C@H](N2CC(C(F)(F)F)C2)C[C@H]1c1ccc(C(=O)O)cc1` [Example 75, 4-((2S,4S)-1-((3-chloro-5-methoxy-7-methyl-1H-indol-4-yl)methyl)-4-(3-(trifluoromethyl)azetidin-1-yl)piperidin-2-yl)benzoic acid], the pIC50 (in general, −log10 of the IC50, conventionally taken in molar units) in assay [1] was 6.52 to 6.70; on human C3bBb (setting [2]), 7.60 to 8.00.

Turning to `COc1cc(C)c2[nH]ccc2c1CN1CC[C@H](n2cc(C(F)(F)F)cn2)C[C@H]1c1ccc(C(=O)O)cc1` [Example 4, 4-((2S,4S)-1-((5-methoxy-7-methyl-1H-indol-4-yl)methyl)-4-(4-(trifluoromethyl)-1H-pyrazol-1-yl)piperidin-2-yl)benzoic acid], the negative logarithm of the IC50 (pIC50) in assay [1] is 6.52 to 6.70; at human C3bBb (setting [3]), more than 8.00.

For `COc1cc(C)c2[nH]ccc2c1CN1CC[C@H](N2CCCC2=O)C[C@H]1c1ccc(C(=O)O)cc1` (racemic) [Example 12, (±)-trans-4-(1-((5-methoxy-7-methyl-1H-indol-4-yl)methyl)-4-(2-oxopyrrolidin-1-yl)piperidin-2-yl)benzoic acid], the negative logarithm of the IC50 (pIC50) in assay [1] was 6.30 to 6.52. Moreover, on human C3bBb (Human C3b:Bb IC50 Avg (nM), 3 nM C3bBb complex, 1 μM human C3, 1 hour room temperature), the IC50 (commonly the concentration that inhibits the measured activity by half) was more than 100 nM.

On to `COc1cc(C)c2[nH]ccc2c1CN1CCN(CC(F)(F)F)C[C@H]1c1ccc(C(=O)O)cc1` [Example 65, (R)-4-(1-((5-methoxy-7-methyl-1H-indol-4-yl)methyl)-4-(2,2,2-trifluoroethyl)piperazin-2-yl)benzoic acid], for which the pIC50 in assay [1] was 6.52 to 6.70; at human C3bBb (setting [2]), 7.60 to 8.00.

For the compound `COc1cc(C)c2[nH]ccc2c1CN1CCC2(C[C@H]1c1ccc(C(=O)O)c(F)c1)CC(F)(F)C2` [Example 50, (S)-4-(2,2-difluoro-7-((5-methoxy-7-methyl-1H-indol-4-yl)methyl)-7-azaspiro[3.5]nonan-6-yl)-2-fluorobenzoic acid], the pIC50 in assay [1] was more than 7.00; at human C3bBb (setting [2]), more than 8.00.

`COc1cc(C)c2[nH]ccc2c1CN1CC[C@H](NC23CC(C2)C3)C[C@H]1c1ccc(C(=O)O)cc1` [Example 21, 4-((2S,4S)-4-(bicyclo[1.1.1]pentan-1-ylamino)-1-((5-methoxy-7-methyl-1H-indol-4-yl)methyl)pyiperidin-2-yl)benzoic acid]: the pIC50 in assay [1] was 6.70 to 7.00; at human C3bBb (setting [3]), less than 7.00.

For `COc1cc(C)c2[nH]ccc2c1CN1CC[C@]2(C[C@H]1c1ccc(C(=O)O)cc1)C[C@@H](F)C2` [Example 61, 4-((2S,4r,6S)-2-fluoro-7-((5-methoxy-7-methyl-1H-indol-4-yl)methyl)-7-azaspiro[3.5]nonan-6-yl)benzoic acid and 4-((2R,4s,6S)-2-fluoro-7-((5-methoxy-7-methyl-1H-indol-4-yl)methyl)-7-azaspiro[3.5]nonan-6-yl)benzoic acid], the pIC50 was more than 7.00 in assay [1] and more than 8.00 on human C3bBb (setting [2]).

Consider `COc1cc(C)c2[nH]ccc2c1CN1CC[C@]2(C[C@H]1c1ccc(C(=O)O)cc1)C[C@@H](C(F)(F)F)C2` (single isomer, unassigned) [Example 49, 4-((2R,4s,6S)-7-((5-methoxy-7-methyl-1H-indol-4-yl)methyl)-2-(trifluoromethyl)-7-azaspiro[3.5]nonan-6-yl)benzoic acid or 4-((2S,4r,6S)-7-((5-methoxy-7-methyl-1H-indol-4-yl)methyl)-2-(trifluoromethyl)-7-azaspiro[3.5]nonan-6-yl)benzoic acid], for which the figures for the pIC50 (in assay [1]; at human C3bBb (setting [2])) were more than 7.00 and more than 8.00, respectively.

For the compound `COc1cc(C)c2[nH]ccc2c1CN1CCN(CC2(F)COC2)C[C@H]1c1ccc(C(=O)O)cc1` [Example 69, (R)-4-(4-((3-fluorooxetan-3-yl)methyl)-1-((5-methoxy-7-methyl-1H-indol-4-yl)methyl)piperazin-2-yl)benzoic acid], the pIC50 in assay [1] was 6.70 to 7.00; at human C3bBb (setting [2]), 7.00 to 7.30.

For `COc1cc(C)c2[nH]ccc2c1CN1CCC2(C[C@H]1c1ccc(C(=O)O)cc1)CC1(CC1)C2` [Example 51, (S)-4-(8-((5-methoxy-7-methyl-1H-indol-4-yl)methyl)-8-azadispiro[2.1.5^5.1^3]undecan-7-yl)benzoic acid], the results for the pIC50 (in assay [1]; on human C3bBb (setting [2])) were more than 7.00 and more than 8.00, respectively.

For the compound `COc1cc(C)c2[nH]ccc2c1CN1CC[C@H](N2CC(S(C)(=O)=O)C2)C[C@H]1c1ccc(C(=O)O)cc1` [Example 79, 4-((2S,4S)-1-((5-methoxy-7-methyl-1H-indol-4-yl)methyl)-4-(3-(methylsulfonyl)azetidin-1-yl)piperidin-2-yl)benzoic acid], the negative logarithm of the IC50 (pIC50) in assay [1] is 6.70 to 7.00; on human C3bBb (setting [2]), 7.00 to 7.30.

For `COc1cc(C)c2[nH]ccc2c1CN1CCN(CCF)C[C@H]1c1ccc(C(=O)O)cc1` [Example 70, (R)-4-(4-(2-fluoroethyl)-1-((5-methoxy-7-methyl-1H-indol-4-yl)methyl)piperazin-2-yl)benzoic acid], the pIC50 in assay [1] is 6.52 to 6.70; at human C3bBb (setting [2]), 7.30 to 7.60.

On to `COc1cc(C)c2[nH]ccc2c1CN1CC[C@]2(CCC(F)(F)C2)C[C@H]1c1ccc(C(=O)O)cc1` (single isomer, unassigned) [Example 35, 4-(5R,7S)-(2,2-difluoro-8-((5-methoxy-7-methyl-1H-indol-4-yl)methyl)-8-azaspiro[4.5]decan-7-yl)benzoic acid or 4-(5S,7S)-(2,2-difluoro-8-((5-methoxy-7-methyl-1H-indol-4-yl)methyl)-8-azaspiro[4.5]decan-7-yl)benzoic acid], for which the pIC50 is more than 7.00 in assay [1] and more than 8.00 on human C3bBb (setting [2]).

With `Cc1cc(C2CC2)c(CN2CC[C@H](N3CC4(CC4)C3)C[C@H]2c2ccc(C(=O)O)cc2)c2cc[nH]c12` [Example 78, 4-((2S,4S)-1-((5-cyclopropyl-7-methyl-1H-indol-4-yl)methyl)-4-(5-azaspiro[2.3]hexan-5-yl)piperidin-2-yl)benzoic acid], the pIC50 was 6.70 to 7.00 in assay [1] and 7.30 to 7.60 on human C3bBb (setting [2]).

In the case of `COc1cc(C)c2[nH]ccc2c1CN1CC[C@]2(C[C@H]1c1ccc(C(=O)O)cc1)C[C@@H](C(F)F)C2` (single isomer, unassigned) [Example 47, 4-((2R,4s,6S)-2-(difluoromethyl)-7-((5-methoxy-7-methyl-1H-indol-4-yl)methyl)-7-azaspiro[3.5]nonan-6-yl)benzoic acid or 4-((2S,4r,6S)-2-(difluoromethyl)-7-((5-methoxy-7-methyl-1H-indol-4-yl)methyl)-7-azaspiro[3.5]nonan-6-yl)benzoic acid], the pIC50 in assay [1] was more than 7.00; at human C3bBb (setting [2]), more than 8.00.

Turning to `COc1cc(C)c2[nH]ccc2c1CN1CC[C@H](n2cc(Cl)cn2)C[C@H]1c1ccc(C(=O)O)cc1` [Example 8], the pIC50 in assay [1] was more than 7.00; on human C3bBb (setting [2]), more than 8.00.

Take `COc1cc(C)c2[nH]ccc2c1CN1CC[C@]2(C[C@H]1c1ccc(C(=O)O)cc1)C[C@@](C)(O)C2` (single isomer, unassigned) [Example 60, 4-((2R,4s,6S)-2-hydroxy-7-((5-methoxy-7-methyl-1H-indol-4-yl)methyl)-2-methyl-7-azaspiro[3.5]nonan-6-yl)benzoic acid or 4-((2S,4r,6S)-2-hydroxy-7-((5-methoxy-7-methyl-1H-indol-4-yl)methyl)-2-methyl-7-azaspiro[3.5]nonan-6-yl)benzoic acid]: the pIC50 in assay [1] was 6.70 to 7.00; at human C3bBb (setting [2]), 7.60 to 8.00.

For the compound `COc1cc(C)c2[nH]ccc2c1CN1CC[C@H](NCC(F)F)C[C@H]1c1ccc(C(=O)O)cc1` [Example 22, 4-((2S,4S)-4-((2,2-difluoroethyl)amino)-1-((5-methoxy-7-methyl-1H-indol-4-yl)methyl)piperidin-2-yl)benzoic acid], the negative logarithm of the IC50 (pIC50) is 6.70 to 7.00 in assay [1] and more than 8.00 on human C3bBb (setting [2]).

(Values after US20250289804A1, “SUBSTITUTED INDOLE COMPOUNDS AND METHODS OF USE THEREOF” (NOVARTIS PHARMA AG, priority 2021, published 2025).)
